In experiment [1] the target is T1, N-type Ca^2+ channel (Homo sapiens, UniProt Q00975).
T1 construct: host or cells: IMR-32 human neuroblastoma cells, differentiated with dibutyryl cAMP and bromodeoxyuridine
The experiment is described as follows: N-type Ca2+ channel blocking potency in IMR-32 cells using the fluorescent Ca2+ indicator Indo-1. It is filed as cell-based. As to conditions: for IC50: K+-stimulated Ca2+ flux, 5 μM nitrendipine to block L-type channels, read-out: IMR32 IC50; for IMR32 % @ 1: at 1 μM; for IMR32 % @ 1 / IMR32 % @ 10: 5 μM nitrendipine; for IMR32 % @ 10: at 10 μM. Here is the method: Measurement of N-type Ca^2+ Channel Blocking Potencies of Compounds in IMR-32 Cells Using the Fluorescent Ca^2+ Indicator Indo-1
IMR-32 cells are a human tumoral cell line of neural origin. […] Calcium flux into these cells may be induced by stimulation with elevated potassium concentrations. The L-channel component of calcium flux may be blocked by adding 5 μM nitrendipine. The remaining component of calcium entry into the IMR-32 cells is due to calcium flux through N-type calcium channels. Intracellular calcium concentrations are measured using the fluorescent calcium indicator Indo-1. The effect of drug concentration on calcium uptake is studied.
The IMR-32 cell line was obtained from the American Type Culture Collection (Rockville, Md.). Cells were grown in Eagle's Minimum Essential Medium with Earle's salts supplemented with 10% fetal bovine serum, 2 mM L-Gln and antibiotic/antimicotic mixture (Gibco). At approximately 80% confluency, differentiation was induced by the addition of 1 mM dibutyryl cAMP and 2.5 μM bromodeoxyuridine to the medium. After 7 to 13 days of differentiation, cells were detached using 0.5 mM EDTA and loaded with 5 μM Indo-1 acetoxymethyl ester (Molecular Probes, Eugene, Oreg.) at […] for 45 minutes. Loaded cells were washed twice, resuspended (~10^7 cells/mL) in assay buffer (10 mM HEPES/Tris pH 7.4 in Hank's Balanced Salt Solution without bicarbonate or phenol red containing 0.5% bovine serum albumin) and kept on ice until use. Fluorescence measurements were carried out in a Photon Technology International (PTI, South Brunswick, N.J.) Model RF-F3004 spectrofluorometer with dual emission monochromators using excitation at 350 nm and emission at 400 and 490 nm. The instrument was equipped with a thermostated cuvette holder with stirring capabilities, as well as with a computer-controlled pump that allowed for reagent addition during measurement. Instrument control and data collection was done by PTI's OSCAR software running on an IBM compatible computer. Different concentrations of the test compounds (60 μL in dimethyl sulfoxide) were added to 5.94 mL of assay buffer containing approximately 3×10^6 loaded cells, and 5 μM Nitrendipine (in 30 μL EtOH) to block L-type Ca^2+ channels. Samples were incubated for 10 minutes at 30° C. and then aliquoted into three 10×10 mm disposable acrylic cuvettes. Emission signals at 400 and 490 nm were acquired from each cuvette at 30° C. for 50 seconds. At 20 seconds after the start of reading, cells were depolarized by the addition of 160 μL of stimulation solution (1 M KCl, 68 mM CaCl2) to the cuvette via the computer-controlled pump. Ratio of dual emission signals (400 nm/490 nm), which is proportional to intracellular Ca^2+ concentration, was plotted against time, and the difference between maximal response after stimulation and basal value (before stimulation) was determined. Values obtained in this way were plotted as a function of drug concentration. IC50 values of test compounds were calculated by fitting a four-parameter logistic function to the data using the least squared method.

For experiment [2], the system named is DBA/2 mice. The experiment is described as follows: Audiogenic seizure model in DBA/2 mice. The class given is in vivo. As to conditions: protected/tested. Here is the method: Audiogenic Seizure Model in DBA/2 Mice
In Vivo Biological Protocol
A compound of the present invention was dissolved in water using 10% (weight/volume) Emulphor (GAF Corp., Wayne, N.J.) surfactant. Substances were administered by intravenous injection into the retro-orbital venous sinus. All testing was performed 15 minutes or 45 minutes after drug injection. All the male mice, 3 to 4 weeks old, were obtained from Jackson Laboratories, Bar Harbour, Me. Immediately before anticonvulsant testing, mice were placed upon a wire mesh, 4 inches square suspended from a steel rod. […] Any mouse falling from the wire mesh was scored as ataxic.
Mice were placed into an enclosed acrylic plastic chamber (21 cm height, approximately 30 cm diameter) with a high-frequency speaker (4 cm diameter) in the center of the top lid. An audio signal generator (Protek model B-810) was used to produce a continuous sinusoidal tone that was swept linearly in frequency between 8 kHz and 16 kHz once each 10 msec. The average sound pressure level (SPL) during stimulation was approximately 100 dB at the floor of the chamber. Mice were placed within the chamber and allowed to acclimatize for 1 minute. DBA/2 mice in the vehicle-treated group responded to the sound stimulus (applied until tonic extension occurred, or for a maximum of 60 seconds) with a characteristic seizure sequence consisting of wild running followed by clonic seizures, and later by tonic extension, and finally by respiratory arrest and death in 80% or more of the mice. In vehicle-treated mice, the entire sequence of seizures to respiratory arrest lasts approximately 15 to 20 seconds.
The incidence of all the seizure phases in the drug-treated and vehicle-treated mice was recorded, and the occurrence of tonic seizures were used for calculating anticonvulsant ED50 values by probit analysis. Mice were used only once for testing at each time and dose point.

Setting [3] is: 10 mg/kg IV, 15 minutes post treatment.
[4] abbreviates: 30 mg/kg IV, 15 minutes post treatment.
Where [5] appears, read: 30 mg/kg IV, 45 minutes post treatment.

Where a name gives a salt, the structure may show the parent alone.

The values that follow come from patent US6180677A, “Tyrosine-derived compounds as calcium channel antagonists” (Warner-Lambert Company, priority 1999, dated 2001).

T1 sequence (Q00975 whole entry): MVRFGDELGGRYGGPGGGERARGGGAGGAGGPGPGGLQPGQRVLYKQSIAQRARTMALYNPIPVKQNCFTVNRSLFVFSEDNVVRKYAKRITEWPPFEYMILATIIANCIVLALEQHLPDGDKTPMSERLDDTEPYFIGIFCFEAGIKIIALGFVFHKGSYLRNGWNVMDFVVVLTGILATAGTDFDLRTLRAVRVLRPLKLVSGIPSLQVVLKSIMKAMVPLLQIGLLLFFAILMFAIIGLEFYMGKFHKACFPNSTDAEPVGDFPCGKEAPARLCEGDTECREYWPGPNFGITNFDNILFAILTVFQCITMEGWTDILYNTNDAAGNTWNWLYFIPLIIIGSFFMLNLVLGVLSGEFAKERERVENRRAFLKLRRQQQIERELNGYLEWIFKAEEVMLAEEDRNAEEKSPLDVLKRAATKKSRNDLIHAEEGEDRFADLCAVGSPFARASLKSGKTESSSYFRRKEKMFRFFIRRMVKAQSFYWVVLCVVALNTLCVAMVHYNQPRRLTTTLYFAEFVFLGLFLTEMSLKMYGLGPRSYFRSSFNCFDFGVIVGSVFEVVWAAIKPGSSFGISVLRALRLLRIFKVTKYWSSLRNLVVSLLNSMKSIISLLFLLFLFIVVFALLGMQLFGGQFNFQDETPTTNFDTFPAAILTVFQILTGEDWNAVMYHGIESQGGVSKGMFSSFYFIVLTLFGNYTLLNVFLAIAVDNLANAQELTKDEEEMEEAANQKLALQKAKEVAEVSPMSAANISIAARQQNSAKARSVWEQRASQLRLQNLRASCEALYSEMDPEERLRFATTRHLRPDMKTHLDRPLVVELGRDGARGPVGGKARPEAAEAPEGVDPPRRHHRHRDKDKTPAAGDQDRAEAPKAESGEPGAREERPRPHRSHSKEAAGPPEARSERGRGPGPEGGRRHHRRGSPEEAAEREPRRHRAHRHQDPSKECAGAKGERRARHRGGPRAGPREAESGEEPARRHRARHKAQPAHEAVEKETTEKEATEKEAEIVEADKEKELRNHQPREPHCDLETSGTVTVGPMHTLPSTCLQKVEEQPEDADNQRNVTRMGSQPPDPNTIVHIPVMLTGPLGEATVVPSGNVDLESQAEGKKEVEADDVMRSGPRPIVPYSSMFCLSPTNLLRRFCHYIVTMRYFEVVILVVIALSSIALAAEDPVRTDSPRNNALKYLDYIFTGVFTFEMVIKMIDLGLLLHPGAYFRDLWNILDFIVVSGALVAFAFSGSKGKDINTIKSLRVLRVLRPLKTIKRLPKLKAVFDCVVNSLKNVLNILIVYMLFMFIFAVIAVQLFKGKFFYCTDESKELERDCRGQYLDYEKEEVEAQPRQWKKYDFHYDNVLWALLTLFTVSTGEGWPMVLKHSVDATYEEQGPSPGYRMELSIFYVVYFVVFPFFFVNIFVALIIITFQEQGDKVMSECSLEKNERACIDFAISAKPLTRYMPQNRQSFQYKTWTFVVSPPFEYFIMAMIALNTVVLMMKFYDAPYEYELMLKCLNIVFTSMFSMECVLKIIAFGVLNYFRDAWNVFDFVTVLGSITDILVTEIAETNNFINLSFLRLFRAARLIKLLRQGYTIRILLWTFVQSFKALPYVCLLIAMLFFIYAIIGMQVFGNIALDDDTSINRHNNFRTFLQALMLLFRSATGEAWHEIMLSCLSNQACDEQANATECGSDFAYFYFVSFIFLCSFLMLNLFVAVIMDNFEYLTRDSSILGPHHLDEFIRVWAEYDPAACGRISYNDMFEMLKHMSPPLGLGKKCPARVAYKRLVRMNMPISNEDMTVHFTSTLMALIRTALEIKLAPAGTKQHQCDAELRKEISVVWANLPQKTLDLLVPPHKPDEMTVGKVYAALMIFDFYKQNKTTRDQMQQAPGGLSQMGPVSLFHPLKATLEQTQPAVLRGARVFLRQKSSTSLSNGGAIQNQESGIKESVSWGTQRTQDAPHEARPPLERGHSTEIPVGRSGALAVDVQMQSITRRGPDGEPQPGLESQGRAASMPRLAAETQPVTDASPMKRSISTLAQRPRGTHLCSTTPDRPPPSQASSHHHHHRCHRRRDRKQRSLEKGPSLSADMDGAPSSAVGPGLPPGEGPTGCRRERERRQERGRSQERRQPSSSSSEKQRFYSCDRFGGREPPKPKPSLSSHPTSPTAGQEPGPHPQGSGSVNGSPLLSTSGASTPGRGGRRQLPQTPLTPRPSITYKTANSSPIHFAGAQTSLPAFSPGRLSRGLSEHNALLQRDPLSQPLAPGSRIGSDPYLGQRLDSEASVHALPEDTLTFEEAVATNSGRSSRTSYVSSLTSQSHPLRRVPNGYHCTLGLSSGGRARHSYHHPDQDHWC
T1 sequence (P54289 25-956 partner limits assumed): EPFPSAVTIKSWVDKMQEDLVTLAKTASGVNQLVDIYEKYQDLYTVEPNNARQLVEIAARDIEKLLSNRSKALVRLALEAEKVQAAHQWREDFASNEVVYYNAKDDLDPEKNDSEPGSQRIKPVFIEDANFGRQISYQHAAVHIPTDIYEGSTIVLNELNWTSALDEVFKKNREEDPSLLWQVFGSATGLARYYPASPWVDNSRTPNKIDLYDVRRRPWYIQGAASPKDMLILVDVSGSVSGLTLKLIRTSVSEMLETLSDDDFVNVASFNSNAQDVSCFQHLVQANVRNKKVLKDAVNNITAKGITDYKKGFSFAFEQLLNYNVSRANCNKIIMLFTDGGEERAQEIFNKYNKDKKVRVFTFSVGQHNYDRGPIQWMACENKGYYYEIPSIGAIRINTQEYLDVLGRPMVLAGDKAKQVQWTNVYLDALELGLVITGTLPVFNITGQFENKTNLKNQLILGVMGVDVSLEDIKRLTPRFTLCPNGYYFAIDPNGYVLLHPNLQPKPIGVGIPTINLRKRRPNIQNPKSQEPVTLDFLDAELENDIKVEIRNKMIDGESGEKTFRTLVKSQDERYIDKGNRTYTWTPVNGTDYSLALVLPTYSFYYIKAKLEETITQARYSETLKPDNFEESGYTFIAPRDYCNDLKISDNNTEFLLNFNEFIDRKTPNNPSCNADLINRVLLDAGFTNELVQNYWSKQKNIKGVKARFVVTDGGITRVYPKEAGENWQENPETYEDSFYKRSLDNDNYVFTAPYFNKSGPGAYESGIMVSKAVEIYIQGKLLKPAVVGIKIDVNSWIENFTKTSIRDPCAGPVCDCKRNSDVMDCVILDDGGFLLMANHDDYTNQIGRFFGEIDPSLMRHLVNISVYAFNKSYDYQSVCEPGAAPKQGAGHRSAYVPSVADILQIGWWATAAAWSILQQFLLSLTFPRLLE
T1 sequence (P54289 957-1103 partner limits assumed): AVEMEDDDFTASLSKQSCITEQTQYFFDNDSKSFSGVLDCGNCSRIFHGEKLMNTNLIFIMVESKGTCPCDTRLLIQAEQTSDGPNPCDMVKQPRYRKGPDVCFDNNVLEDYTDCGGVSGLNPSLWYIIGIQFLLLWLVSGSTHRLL
T1 sequence (P54284 whole entry partner): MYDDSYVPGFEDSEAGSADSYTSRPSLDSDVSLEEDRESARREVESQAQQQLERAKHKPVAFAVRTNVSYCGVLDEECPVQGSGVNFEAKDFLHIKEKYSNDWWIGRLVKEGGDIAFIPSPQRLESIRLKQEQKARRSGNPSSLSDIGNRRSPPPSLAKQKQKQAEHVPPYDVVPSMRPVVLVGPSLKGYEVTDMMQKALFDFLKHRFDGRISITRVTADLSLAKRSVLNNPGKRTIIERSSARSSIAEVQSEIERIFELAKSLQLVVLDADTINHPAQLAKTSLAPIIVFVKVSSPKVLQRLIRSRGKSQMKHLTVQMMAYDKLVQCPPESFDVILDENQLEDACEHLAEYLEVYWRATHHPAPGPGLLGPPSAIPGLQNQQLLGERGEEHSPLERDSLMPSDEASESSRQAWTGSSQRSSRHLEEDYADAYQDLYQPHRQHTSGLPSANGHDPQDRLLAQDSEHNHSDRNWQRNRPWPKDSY

As usually defined, the IC50 is the concentration that gives 50% inhibition. As for `CC(C)(C)c1ccc(CN[C@@H](Cc2ccc(OCc3ccccc3)cc2)C(=O)NCCN2CCCCC2)cc1` [Example 13, (S)-3-(4-Benzyloxy-phenyl)-2-(4-tert-butyl-benzylamino)-N-(2-piperidin-1-yl-ethyl)-propionamide], the half-inhibitory concentration (IC50) in experiment [1] is 700 nM. The “Number of Mice Protected from Tonic Convulsions” value (“Number of Mice Protected” for short) in experiment [2] (setting [3]) was 0/5; in experiment [2] (10 mg/kg IV, 45 minutes post treatment), 1/5; in experiment [2] (setting [4]) it was 4/5; in experiment [2] (setting [5]), 4/5. On to `CC(C)CCN(CCC(C)(C)C)[C@@H](Cc1ccc(OCc2ccccc2)cc1)C(=O)NC(C)(C)C.Cl` [Example 6, (S)-3-(4-Benzyloxy-phenyl)-N-tert-butyl-2-[(3,3-dimethyl-butyl)-(3-methyl-butyl)-amino]-propionamide monohydrochloride], for which the IC50 in experiment [1] came out at 440 nM. Moreover, the “Number of Mice Protected” value in experiment [2] (setting [4]) is given as 2/5; in experiment [2] (setting [5]) it was 4/5. For `CC(C)(C)CCN[C@@H](Cc1ccc(OCc2ccccc2)cc1)C(=O)NC(C)(C)C` [Example 7, (S)-3-(4-Benzyloxy-phenyl)-N-tert-butyl-2-(3,3-dimethyl-butylamino)-propionamide monohydrochloride], the half-maximal inhibitory concentration (IC50) in experiment [1] is 1400 nM.

With `CC(C)(C)c1ccc(CN(Cc2ccc(C(C)(C)C)cc2)C(CNCCN2CCCCC2)Cc2ccc(OCc3ccccc3)cc2)cc1` (centres unmarked) [Example 11, 3-(4-Benzyloxy-phenyl)-N^2, N^2-bis-(4-tert-butyl-benzyl)-N^1-(2-piperidin-1-yl-ethyl)-propane-1,2-diamine], the IC50 in experiment [1] is 170 nM. With `CC(C)(C)c1ccc(CNC(CNCCN2CCCCC2)Cc2ccc(OCc3ccccc3)cc2)cc1` (centres unmarked) [Example 12, 3-(4-Benzyloxy-phenyl)-N^2-(4-tert-butyl-benzyl)-N^1-(2-piperidin-1-yl-ethyl)-propane-1,2-diamine], the concentration for half-maximal inhibition (IC50) in experiment [1] is 280 nM. The “Number of Mice Protected” value in experiment [2] (setting [3]) is on record as 0/5.

As to `CC(C)(C)c1ccc(CN(Cc2ccc(C(C)(C)C)cc2)[C@@H](Cc2ccc(OCc3ccccc3)cc2)C(=O)NCCN2CCCCC2)cc1` [Example 10, (S)-3-(4Benzyloxy-phenyl)-2-[bis-(4-tert-butyl-benzyl)-amino]-N-(2-piperidin-1-yl-ethyl)-propionamide], in experiment [1], the 50% inhibitory concentration (IC50) amounted to 680 nM. Take `CC(C)(C)NC(=O)[C@H](Cc1ccc(OCc2ccccc2)cc1)NC(=O)C1(c2ccccc2)CCCC1` [Example 1, (S)-1-Phenyl-cyclopentanecarboxylic acid [2-(4-benzyloxy-phenyl)-1-tert-butylcarbamoyl-ethyl]-amide]: in experiment [1], the IC50 turned out to be 1200 nM. Take `CC(C)(C)NCC(Cc1ccc(OCc2ccccc2)cc1)NCc1ccc(C(C)(C)C)cc1` (centres unmarked) [Example 14, 3-(4-Benzyloxy-phenyl)-N^1-tert-butyl-N^2-(4-tert-butyl-benzyl)-propane-1,2-diamine]: the concentration for half-maximal inhibition (IC50) in experiment [1] is 450 nM. In addition, the “Number of Mice Protected” value in experiment [2] (setting [4]) was 5/5; in experiment [2] (setting [5]), 4/5. In the case of `CC(C)CCN(CC1CCCCC1)[C@@H](Cc1ccc(OCc2ccccc2)cc1)C(=O)NC(C)(C)C.Cl` [Example 5, (S)-3-(4-Benzyloxy-phenyl)-N-tert-butyl-2-[cyclohexyl-methyl-(3-methyl-butyl)-amino]-propionamide monohydrochloride], in experiment [1], the “IMR32 % @ 1” value was 27% and the “IMR32 % @ 10” value is on record as 61%.

On to `CC(C)(C)CCN(CCC(C)(C)C)[C@@H](Cc1ccc(OCc2ccccc2)cc1)C(=O)NC(C)(C)C` [Example 8, (S)-3-(4-Benyloxy-phenyl)-2-[bis-(3,3-dimethyl-butyl)-amino]-N-tert-butyl-propionamide monohydrochloride], for which the half-maximal inhibitory concentration (IC50) in experiment [1] is 790 nM. For the molecule `CC(C)CCC(CCC(C)C)N[C@@H](Cc1ccc(OCc2ccccc2)cc1)C(=O)NC(C)(C)C.Cl` [Example 4, (S)-3-(4-Benzyloxy-phenyl)-N-tert-butyl-2-[4-methyl-1-(3-methyl-butyl)-pentylamino]-propionamide monohydrochloride], in experiment [1], the “IMR32 % @ 1” value is on record as 45% and the “IMR32 % @ 10” value was determined as 102%. Regarding `CC(C)CCN(CCC(C)C)[C@@H](Cc1ccc(OCc2ccccc2)cc1)C(=O)NC(C)(C)C.Cl` [Example 3, (S)-3-(4-Benzyloxy-phenyl)-2-[bis-(3-methyl-butyl)-amino]-N-tert-butyl-propionamide monohydrochloride], the half-maximal inhibitory concentration (IC50) in experiment [1] is 760 nM. Further, in experiment [2] (setting [4]), the “Number of Mice Protected” value is on record as 4/5. `CC(C)(C)NC(=O)[C@H](Cc1ccc(OCc2ccccc2)cc1)NCc1ccc(C(C)(C)C)cc1` [Example 9, (S)-3-(4-Benzyloxy-phenyl)-N-tert-butyl-2-(4-tert-butyl-benzylamino)-propionamide monohydrochloride]: the IC50 in experiment [1] was 2000 nM.

With “(S)-3-(4-Benzyloxy-phenyl)-N-tert-butyl-2-(3-methyl-butylamino)-propionamide monohydrochloride [Example 2]”, the IC50 in experiment [1] came to 2000 nM.
